Laboratory results reported in US4435329A, “Substituted N-(ω-aroylpropionyl) derivatives of α-amino acids and esters thereof” (American Cyanamid Company, priority 1981, dated 1984).

Tested on: angiotensin converting enzyme
Assay: in vitro spectrophotometric assay for inhibition of angiotensin converting enzyme (method of Cushman and Cheung)
Type: biochemical
Conditions: crude extract of ACE from rabbit lung acetone powder; substrate benzoyl-glycyl-histidyl-leucine; 30 minutes at 37° C.; result in words only
Procedure: The in vitro activity for inhibition of the angiotensin converting enzyme was measured by the method of D. W. Cushman and H. S. Cheung, Biochem. Pharmacol., Vol. 20, pages 1637-1648 (1972), using benzoyl-glycyl-histidyl-leucine as the substrate. The reaction mixture consisted of 50 μl. of potassium phosphate (500 mM., pH of […]), 30 μl. of sodium chloride (2500 mM.), 25 μl. of substrate (50 mM.), 30 to 50 μl. of the crude extract of ACE, 10 μl. of the test compound (2.5 mM.) or vehicle, and a suitable amount of distilled water to give a total volume of 250 μl. This reaction mixture was incubated for 30 minutes at 37° C. and the reaction was then terminated by the addition of 250 μl. of 1 N hydrochloric acid. The hippuric acid was then extracted with 1.5 ml. of ethyl acetate by vortex mixing for 15 seconds. After centrifugation, one ml. of the ethyl acetate layer was pipetted into a new tube and evaporated to dryness. The extracted hippuric acid was then dissolved in one ml. of water and the amount of this acid was then measured by its absorbance at 228 nm. […] The activity of the ACE inhibitor was calculated as the percent inhibition of ACE activity compared to the control value of that particular assay. […]

Row | SMILES | inhibition of the angiotensin converting enzyme
1 | CC(=O)SC(CC(=O)N[C@H](C(=O)O)C(C)C)C(=O)c1ccc(Br)cc1 (stereo partly drawn) [Example 1, N-[3-Acetylthio-3-(4-bromobenzoyl)propionyl]-L-valine] | angiotensin converting enzyme inhibitors
2 | COc1ccc(C(=O)C(CC(=O)N[C@@H](Cc2ccccc2)C(=O)O)SC(C)=O)cc1F (stereo partly drawn) [Example 23, N-[3-Acetylthio-3-(3-fluoro-4-methoxybenzoyl)propionyl]-L-phenylalanine] | angiotensin converting enzyme inhibitors
